{"source": "patent US5223494A", "about": "“Orally administered porphyrins to control intestinal iron absorption” (The Rockefeller University, priority 1990, dated 1993)", "key": {"[1]": {"test_system": "intestinal microsomal heme oxygenase", "experiment": "Competitive inhibition of intestinal microsomal heme oxygenase in vitro", "format": "biochemical, rat", "protocol": "SnPP (o) was added to intestinal microsomes at concentrations of […]. The heme concentration was 50 uM. Heme oxygenase activity was determined as described below under Materials and Methods. Each point represents the mean of at least 3 individual experiments. Similar results obtain for other metalloporphyrins within the scope of the present invention.\n(§1) Animals were sacrificed at the times indicated in the legend to the Table and in the above and following descriptions of the Figures, and then exhaustively perfused in situ with ice-cold 0.9% NaCl through the left ventricle. The small intestine was cut at the pyloric junction and the entire length of the intestine irrigated in situ with 30 ml of ice-cold 0.9% NaCl to remove intestinal contents. Beginning at 5 cm, a 20 cm segment of small intestine was excised and irrigated once more with 30 ml of saline. The mucosa was then gently scraped off with a stainless steel scalpel and placed in ice-cold potassium phosphate buffer (0.1M, pH 7.4), containing sucrose (0.25M), 20% glycerin (v/v), trypsin inhibitor (5 mg/ml), and heparin (3 U/ml), as described by Stohs et al, Arch. Biochem Biophys. 177: 105-116 (1976). Following sonication and homogenization, intestinal microsomes were then prepared by differential centrifugation as described in Rosenberg et al, Biochem. Pharmacol. 38: 1155-1161 (1988). The microsomal pellet was rinsed and resuspended in 1.5 ml of potassium phosphate buffer (0.1M, pH 7.4) to a protein concentration of approximately 5-10 mg/ml. Microsomes were freshly prepared on a daily basis for all subsequent assays. The activity of heme oxygenase was determined as described in Maines et al, J. Biol. Chem. 250: 4171-4178 (1975), using the 105,000xg supernatant fraction derived from normal rat liver as the source of biliverdin reductase, and a hemin concentration of 50 uM. Bilirubin formation was calculated using an absorption coefficient of 40 mm^1 cm^1 between 464 and 530 nm (See Maines et al, Proc. Natl. Acad. Sci. USA 71: 4293-4297 (1974)). Protein content was determined by method of Lowry et al, J. Biol. Chem. 193: 265-275 (1951) suing bovine serum albumin as a standard.\nThis is similar to the Km reported for heme in hepatic and splenic microsomes (See Kappas et al, J. Clin. Invest. 77: 335-339 (1986); Yoshinaga et al, J. Biol. Chem. 257: 7778-7785 (1982))."}, "[2]": {"test_system": "intestinal microsomal heme oxygenase", "experiment": "Intestinal microsomal heme oxygenase activity after a single dose to rats", "format": "in vivo, rat", "details": "for Heme Oxygenase Activity in the Gut, Average: control 2.70 + 0.09", "protocol": "(§2) Rats were maintained on Standard Purina Rodent Chow (St. Louis, Mo.), and were allowed to acclimatize to a light-cycled room (12 hr light/dark cycle) for at least one week prior to study. SnPP was dissolved in a small volume (0.2 ml/ml final volume) of 0.2N Na3 PO4 12H2 O, adjusted to pH 7.4 with 1M HCl and made up to a final volume with 0.9% NaCl under subdued light. SnPP was administered either subcutaneously or by gavage in a single dose of 25 umoles/kg body weight (4.0 ml/kg body weight). Control rats received an equivalent volume of diluent. All rats were allowed free access to food and water.\nas §1\nA single does of SnPP (25 umoles/kg b.w.) was administered either orally or parenterally to rats, and heme oxygenase levels were determined in the small intestinal epithelium at the times indicated in FIG. 1. This dose was selected to match that previously used by other investigators (See Hintz et al, Ped. Res. 23: 50-53 (1988)). Following oral treatment, heme oxygenase activity was rapidly (within 3 hours) inhibited (50% of controls), but the levels returned to normal within 16-24 hours after treatment."}, "[3]": {"details": "rat, in vivo, po", "protocol": "as §2\nAll tin analyses were performed on Zeeman/5000 atomic absorption spectrophotometer equipped with an HGA-500 graphite furnace Perkin-Elmer Corp., Norwalk, Conn.). The graphite furnace utilized the L'vov platform (See Slavin et al, At. Spectrosc. 2: 137-145 (1981)) with an appropriate wavelength (286.4 nm) and instrumental operating conditions as recommended by the manufacturer and optimized in our laboratory for tin measurement. All tin analyses included magnesium nitrate and ammonium phosphate in 20% nitric acid as a matrix modified.\nFor Table II: SnPP was adminsitered to rats in a single dose (25 umoles/kg body weight) either orally or subcutaneously. Tissue tin levels were determined 48 hours later by graphite furnace atomic absorption spectroscopy. […]"}, "[4]": {"test_system": "intestinal heme oxygenase", "details": "in vitro or in vivo after administration of SnPP; Hintz et al 1988; cited from earlier work"}, "[5]": {"details": "SnPP 25 umoles/kg single oral dose, rat"}}, "note": "Like-named read-outs stand apart in the source and are kept apart here."}
{"compound": "C=CC1=C(C)c2cc3[n-]c(cc4[n-]c(cc5nc(cc1n2)C(C)=C5C=C)c(C)c4CCC(=O)O)c(CCC(=O)O)c3C.[Fe+2]", "note": "[heme, reference compound]", "values": [{"measurement": "Km", "setting": "[1]; intestinal microsomes, no inhibitor, linear regression, read-out: apparent Km for the substrate heme", "result": 8.21, "unit": "µM"}]}
{"compound": "chromium mesoporphyrin [CrMP]", "values": [{"measurement": "Heme Oxygenase Activity in the Gut, Average", "setting": "[2]; 3 hours after oral 25 umol/Kg CrMP", "result": "0.64 + 0.38"}, {"measurement": "Heme Oxygenase Activity in the Gut, Average", "setting": "[2]; 16 hours after oral 25 umol/Kg CrMP", "result": "1.04 + 0.02"}, {"measurement": "Heme Oxygenase Activity in the Gut, Average", "setting": "[2]; 24 hours after oral 25 umol/Kg CrMP", "result": "1.85 + 0.07"}, {"measurement": "Heme Oxygenase Activity in the Gut, Average", "setting": "[2]; 48 hours after oral 25 umol/Kg CrMP", "result": "2.57 + 0.07"}]}
{"compound": "C=Cc1c2[n-]c(c1C)/C=c1\\[n-]/c(c(C)c1C=C)=C\\c1[n-]c(c(CCC(=O)O)c1C)/C=c1\\[n-]c(c(C)c1CCC(=O)O)=C2.[Sn+4]", "note": "[SnPP, tin protoporphyrin]", "values": [{"measurement": "absorption from the gastrointestinal tract", "setting": "[3]", "result": "very low degree of absorption"}, {"measurement": "Km", "setting": "[1]; SnPP 0.05 uM, intestinal microsomes, read-out: Km for heme in presence of SnPP", "result": 23.9, "unit": "µM"}, {"measurement": "Km", "setting": "[1]; SnPP 0.1 uM, intestinal microsomes, read-out: Km for heme in presence of SnPP", "result": 56.2, "unit": "µM"}, {"measurement": "increase in the Km for heme", "setting": "[1]; SnPP 0.05 and 0.1 uM", "result": "3- to 7 fold"}, {"measurement": "type of inhibition of enzyme activity", "setting": "[1]; SnPP 0.05 and 0.1 uM added to incubation mixtures", "result": "marked competitive inhibition"}, {"measurement": "Ki", "setting": "[1]; intestinal microsomes", "result": 17, "unit": "nM"}, {"measurement": "inhibition of intestinal heme oxygenase", "setting": "[4]", "result": "no inhibition"}, {"measurement": "heme oxygenase activity in small intestinal epithelium", "setting": "[2]; [5]", "result": "50 % of controls"}, {"measurement": "time for heme oxygenase levels to return to normal", "setting": "[2]; [5]", "result": "16 to 24", "unit": "h"}, {"measurement": "time to inhibition of heme oxygenase activity", "setting": "[2]; [5]", "result": "≤ 3", "unit": "h"}, {"measurement": "inhibition of heme oxygenase activity", "setting": "[2]; SnPP 25 umoles/kg single parenteral (subcutaneous) dose, rat", "result": 65, "unit": "% inhibition"}, {"measurement": "persistence of decreased heme oxygenase activity", "setting": "[2]; SnPP 25 umoles/kg single parenteral dose, rat", "result": "at least 48 hours"}]}
